In ChEMBL document CHEMBL5370541, “Targeting VPS34 in autophagy: An update on pharmacological small-molecule compounds” (Eur J Med Chem, 2023):
Values belong to the compound of their own block, whether it stands above or below them.

Assays:
[1] = target: T1, Phosphatidylinositol 3-kinase catalytic subunit type 3 (Homo sapiens, UniProt Q8NEB9); assay: Inhibition of VPS34 (unknown origin) by ADP hunter plus assay
MCF7 [2] = assay: Inhibition of starvation-induced autophagy in human MCF7 cells expressing eGFP-tagged LC3; type: functional, cell-based
MCF7 [3] = assay: Inhibition of rapamycin-induced autophagy in human MCF7 cells expressing eGFP-tagged LC3; type: functional, cell-based
[4] = target: T1, Phosphatidylinositol 3-kinase catalytic subunit type 3; assay: Binding affinity to VPS34 (unknown origin) assessed as dissociation constant by KINOMEscan analysis

T1 sequence (Q8NEB9 whole entry): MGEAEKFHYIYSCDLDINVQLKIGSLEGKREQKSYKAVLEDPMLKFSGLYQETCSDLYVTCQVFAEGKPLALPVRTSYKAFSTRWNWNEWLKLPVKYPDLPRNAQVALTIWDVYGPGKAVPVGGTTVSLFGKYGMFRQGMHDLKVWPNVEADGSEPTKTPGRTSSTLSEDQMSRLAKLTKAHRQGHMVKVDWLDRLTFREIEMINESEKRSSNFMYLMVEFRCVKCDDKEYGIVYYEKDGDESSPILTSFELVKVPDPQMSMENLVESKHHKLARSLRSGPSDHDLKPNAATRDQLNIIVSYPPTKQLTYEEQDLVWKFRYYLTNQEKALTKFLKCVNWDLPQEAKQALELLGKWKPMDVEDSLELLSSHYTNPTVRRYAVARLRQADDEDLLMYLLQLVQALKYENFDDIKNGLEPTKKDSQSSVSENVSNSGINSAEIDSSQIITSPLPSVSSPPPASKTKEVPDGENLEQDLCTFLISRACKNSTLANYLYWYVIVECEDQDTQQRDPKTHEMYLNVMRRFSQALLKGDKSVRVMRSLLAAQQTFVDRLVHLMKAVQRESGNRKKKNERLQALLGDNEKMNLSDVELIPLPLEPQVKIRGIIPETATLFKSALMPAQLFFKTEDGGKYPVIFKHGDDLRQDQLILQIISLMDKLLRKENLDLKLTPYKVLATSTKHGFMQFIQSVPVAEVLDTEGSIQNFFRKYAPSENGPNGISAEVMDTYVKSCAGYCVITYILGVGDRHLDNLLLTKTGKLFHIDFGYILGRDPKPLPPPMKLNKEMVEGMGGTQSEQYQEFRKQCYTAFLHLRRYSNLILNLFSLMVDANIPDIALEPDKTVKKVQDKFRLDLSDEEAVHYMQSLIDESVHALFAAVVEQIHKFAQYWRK

SMILES: COc1ccc2nccc([C@@H](O)[C@@H]3C[C@@H]4CCN3c3c4[nH]c4nc(C)c(Br)cc34)c2c1
- IC50 (MCF7 [2]): 40 nM
- IC50 (MCF7 [3]): 8 nM

SMILES: O=c1cc(N2CCOCC2)nc2n(Cc3cccc(Cl)c3Cl)c(C3CC3)nn12
- IC50 [1]: 9.12 nM

SMILES: COc1ccc2nccc([C@@H](O)[C@@H]3C[C@@H]4CCN3c3c4[nH]c4nc(C(F)(F)F)ccc34)c2c1
- IC50 (MCF7 [2]): 5820 nM

SMILES: COc1ccc2nccc([C@@H](O)[C@@H]3C[C@@H]4CCN3c3c4[nH]c4nc(Cl)ccc34)c2c1
- IC50 (MCF7 [2]): 8120 nM

Continued, values first:

- IC50 [1]: 151 nM
SMILES: O=C1Nc2ccc(-c3cccnc3)cc2C1=Cc1cc(Br)c(O)c(Br)c1

- IC50 [1]: 1510 nM
SMILES: O=S(=O)(c1ccc(-c2ccnc3[nH]ccc23)cc1)C1CCCC1

- Kd [4]: 1 nM
SMILES: C[C@@H]1COCCN1c1cc(N2CCCC[C@@H]2C(F)(F)F)[nH]c(=O)c1
